Where two headings read alike, the source gives them in different places.
Legend:
[1] = system: IGF1-induced S6 phosphorylation; assay: Growth factor induced S6 ribosomal protein phosphorylation in primary human fibroblasts; assay type: cell-based; settings: normal human dermal fibroblasts (NHDF), stimulated with 10 nM IGF-1; read-out: Inhibition of IGF1-induced S6 phosphorylation IC50
Method: Growth Factor Induced S6 Ribosomal Protein Phosphorylation in Primary Human Fibroblasts.
Phosphorylation of S6 ribosomal protein in response to growth factor stimulation of normal human dermal fibroblasts (NHDF) was used to assess compound potency in inhibiting IGF-1 induced signal transduction in cells, and selectivity towards EGF and PDGF stimulus. NHDF cells obtained from PromoCell (Heidelberg, Germany), were maintained at 37° C. in a humidified atmosphere with 5% CO2 in complete Fibroblast Growth Medium (PromoCell). For assay, NHDF were seeded in 384-well tissue culture plates (clear- and flat-bottomed black plates; Matrix Technologies Inc., Hudson, N.H., USA) at a density of 5000 cells/well in serum-free medium containing 0.1% bovine serum albumin (BSA) and incubated for 5 days. Starved cells were treated for 1 hour with desired doses of compounds and then stimulated for a further 2 hours with either 10 nM IGF-1 (Invitrogen Corp., CA, USA), 10 nM EGF (Gibco BRL, USA) or 1 nM PDGF-B/B (Roche Diagnostics GmbH, Germany). Cells were then fixed in PBS/3.7% paraformaldehyde for 20 minutes at room temperature, washed ×2 with PBS, and permeabilized with PBS/0.3% Triton X-100 for 15 minutes. Wells were then saturated with PBS/1% non-fat dry milk (Bio-Rad Laboratories, Hercules, Calif., USA) for 1 hour, and then probed for 1 hour at 37° C. with anti-phospho-S6 (Ser 235/236) antibody (Cell Signaling Technology, Beverly, Mass., USA, cat. #2211) at 1/200 dilution in PBS/1% milk/0.3% Tween 20. […] Fluorescence images in the DAPI and Cy5™ channels were automatically acquired, stored and analysed using a Cellomics ArrayScan™ IV instrument (Cellomics, Pittsburgh, USA); the Cellomics Cytotoxicity Algorithm was used to quantify cytoplasmic fluorescence associated with phospho-S6 (Cy5™ signal parameter: “Mean Lyso Mass-pH”) for each cell in 10 fields/well, and eventually expressed as a mean population value. […]

[2] = target: T1, IGF1R (Homo sapiens, UniProt P08069); assay: Western blot analysis of receptor phosphorylation following stimulation with IGF-1 in MCF-7 human breast cancer cells; assay type: cell-based; set-up: endogenous in cells; host or cells: MCF-7 (ATCC# HTB-22); settings: starved MCF-7 cells, increasing concentrations of compound prior to 10 nM IGF1
Method: Cell-Based Assays for Inhibitors of IGF-1R Kinase Activity Western Blot Analysis of Receptor Phosphorylation Following Stimulation with IGF-1 in MCF-7 Human Breast Cancer Cells
MCF-7 cells (ATCC# HTB-22) were seeded in 12-well tissue culture plates at 2×10^5 cells/well in E-MEM medium (MEM+Earle's BSS+2 mM glutamine+0.1 mM non-essential amino acids)+10% FCS, and incubated overnight at 37° C., 5% CO2, 100% relative humidity. Cells were then starved by replacing E-MEM+10% FCS with E-MEM+0.1% BSA, and incubating overnight. After this incubation, wells were treated with desired concentrations of compound for 1 hour at 37° C., and were then stimulated with 10 nM recombinant human IGF-1 (Invitrogen, Carlsbad, Calif., USA) for 10 minutes at 37° C. […] Cell lysates were cleared by centrifugation at 10,000×g for 5 minutes, and 10 microg/lane of cleared lysate protein were run on NuPAGE gels (NuPAGE 4-12% 10-lane Bis-Tris gels, Invitrogen) with MOPS running buffer, then transferred onto Hybond-ECL nitrocellulose filters (Amersham Biosciences, Little Chalfont, Buckinghamshire, UK) using Mini PROTEAN II chambers (Bio-Rad Laboratories, Hercules, Calif., USA). […] In either case, filters were then washed for 30 minutes with several changes of TBS+0.15% Tween 20, and incubated for 1 hour in washing buffer containing 1/5000 dilution of horseradish peroxidase conjugated anti-rabbit IgG (Amersham, product #NA934), then were washed again and developed using the ECL chemiluminescence system (Amersham) according to manufacturer's recommendations. Unless otherwise stated, reagents used were from Sigma-Aldrich, St. Louis, Mo., USA.
Target sequence in this assay (P08069 31-1367): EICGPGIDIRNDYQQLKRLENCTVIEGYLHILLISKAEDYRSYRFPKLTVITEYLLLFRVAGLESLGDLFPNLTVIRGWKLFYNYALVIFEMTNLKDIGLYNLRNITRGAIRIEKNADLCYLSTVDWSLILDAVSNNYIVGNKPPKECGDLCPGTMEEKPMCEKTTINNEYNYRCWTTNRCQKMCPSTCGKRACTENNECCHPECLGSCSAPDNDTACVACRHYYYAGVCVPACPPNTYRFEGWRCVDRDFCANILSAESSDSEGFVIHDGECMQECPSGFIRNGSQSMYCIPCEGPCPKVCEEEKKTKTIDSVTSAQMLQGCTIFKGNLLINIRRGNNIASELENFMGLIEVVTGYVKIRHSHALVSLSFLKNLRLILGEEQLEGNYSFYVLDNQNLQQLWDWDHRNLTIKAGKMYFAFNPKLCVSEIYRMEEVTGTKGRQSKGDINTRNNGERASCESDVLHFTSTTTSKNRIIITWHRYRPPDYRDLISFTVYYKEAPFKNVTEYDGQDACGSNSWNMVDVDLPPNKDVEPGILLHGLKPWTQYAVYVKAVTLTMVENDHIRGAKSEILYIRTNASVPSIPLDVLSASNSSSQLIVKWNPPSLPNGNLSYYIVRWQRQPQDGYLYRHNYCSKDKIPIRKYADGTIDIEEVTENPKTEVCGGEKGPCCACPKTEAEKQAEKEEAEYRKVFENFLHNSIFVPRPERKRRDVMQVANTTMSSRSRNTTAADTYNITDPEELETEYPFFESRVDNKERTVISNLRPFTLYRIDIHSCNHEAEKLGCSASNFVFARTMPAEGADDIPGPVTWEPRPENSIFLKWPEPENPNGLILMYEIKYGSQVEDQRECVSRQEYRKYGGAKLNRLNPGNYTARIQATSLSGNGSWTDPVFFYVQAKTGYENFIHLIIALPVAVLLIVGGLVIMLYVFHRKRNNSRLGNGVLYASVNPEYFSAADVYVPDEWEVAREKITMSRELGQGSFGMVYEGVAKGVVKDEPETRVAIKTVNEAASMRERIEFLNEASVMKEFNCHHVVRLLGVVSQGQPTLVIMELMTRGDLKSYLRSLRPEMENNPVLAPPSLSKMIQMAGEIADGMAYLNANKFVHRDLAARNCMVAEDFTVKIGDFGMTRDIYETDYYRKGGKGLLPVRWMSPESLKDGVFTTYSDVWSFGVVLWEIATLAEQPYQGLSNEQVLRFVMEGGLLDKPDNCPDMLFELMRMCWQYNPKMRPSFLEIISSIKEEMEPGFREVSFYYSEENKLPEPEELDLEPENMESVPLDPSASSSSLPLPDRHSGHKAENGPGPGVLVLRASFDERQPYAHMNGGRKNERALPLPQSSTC

[3] = target: T1, IGF1R; assay: Biochemical assay for inhibitors of IGF-1R kinase activity (trans-phosphorylation assay, robotized Dowex assay); set-up: amino acid residues 960-1367 of precursor protein; made in house; host or cells: H5 insect cells (baculovirus; virus made in Sf21 cells)
Method: ID NO: 2). […] The inhibitory activity of putative kinase inhibitors and the potency of selected compounds were determined using a trans-phosphorylation assay.
Target sequence in this assay (P08069 960-1367): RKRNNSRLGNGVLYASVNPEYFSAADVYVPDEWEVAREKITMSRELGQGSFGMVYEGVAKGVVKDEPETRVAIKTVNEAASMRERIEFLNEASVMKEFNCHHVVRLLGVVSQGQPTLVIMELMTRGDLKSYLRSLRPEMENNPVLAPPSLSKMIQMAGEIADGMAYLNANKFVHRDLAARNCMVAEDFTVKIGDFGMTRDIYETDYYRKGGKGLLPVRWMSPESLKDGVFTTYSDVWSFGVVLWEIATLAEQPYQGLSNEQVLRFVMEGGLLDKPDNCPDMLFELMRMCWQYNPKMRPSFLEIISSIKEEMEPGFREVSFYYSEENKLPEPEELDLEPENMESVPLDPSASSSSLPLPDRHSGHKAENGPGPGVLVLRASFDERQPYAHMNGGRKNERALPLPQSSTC

[4] = 6 nM enzyme, 6 microM ATP, 10 microM peptide substrate, read-out: IGF1R IC50 (μM) Biochemical assay

Row | IC50 [3, 4] [µM] | IC50 [3] [µM] | Compound | IC50 [1] [nM] | inhibition of IGF1-induced IGF1R auto-phosphorylation (pIGF1R band, FIG. 1) [2]
1 | 0.17 | – | CN1CCN(c2ccc(C(=O)Nc3n[nH]c4c3CN(S(=O)(=O)c3cc(F)cc(F)c3)C4(C)C)c(NC(=O)[C@@H]3CCCO3)c2)CC1 [Compound 1, (S)-Tetrahydro-furan-2-carboxylic acid [2-[5-(3,5-difluoro-benzenesulfonyl)-6,6-dimethyl-1,4,5,6-tetrahydro-pyrrolo[3,4-c]pyrazol-3-ylcarbamoyl]-5-(4-methyl-piperazin-1-yl)-phenyl]-amide] | 740 | inhibition of IGF1-induced IGF1R auto-phosphorylation
2 | 0.46 | – | CC(C)CNc1cc(N2CCN(C)CC2)ccc1C(=O)Nc1n[nH]c2c1CN(S(=O)(=O)c1cc(F)cc(F)c1)C2(C)C.Cl [Compound 90, N-[5-(3,5-Difluoro-benzenesulfonyl)-6,6-dimethyl-1,4,5,6-tetrahydro-pyrrolo[3,4-c]pyrazol-3-yl]-2-isobutylamino-4-(4-methyl-piperazin-1-yl)-benzamide hydrochloride] | 5300 | inhibition of IGF1-induced IGF1R auto-phosphorylation
3 | – | 0.09 | CN1CCN(c2ccc(C(=O)Nc3n[nH]c4c3CN(S(=O)(=O)c3cc(F)cc(F)c3)C4(C)C)c(NC(=O)c3cc[nH]c3)c2)CC1 [Compound 11, 1H-pyrrole-3-carboxylic acid [2-[5-(3,5-difluoro-benzenesulfonyl)-6,6-dimethyl-1,4,5,6-tetrahydro-pyrrolo[3,4-c]pyrazol-3-ylcarbamoyl]-5-(4-methyl-piperazin-1-yl)-phenyl]-amide] | 300 | inhibition of IGF1-induced IGF1R auto-phosphorylation
